From PMC6691788, “Design and synthesis of phthalazine-based compounds as potent anticancer agents with potential antiangiogenic activity via VEGFR-2 inhibition” (Journal of Enzyme Inhibition and Medicinal Chemistry, 2019)

Experiments:
NCI-H226 = test: NCI 60 cell panel SRB screen; assay type: cell-based; details: Homo sapiens; for activity at 10 µM: NCI-H226, single dose 10 μM, read-out: percent cell growth promotion
RPMI-8226 = test: NCI 60 cell panel SRB screen; assay type: cell-based; details: Homo sapiens; for activity at 10 µM: RPMI-8226, single dose 10 μM, read-out: percent cell growth promotion
NCI-H522 = test: NCI 60 cell panel SRB screen; assay type: cell-based; details: Homo sapiens; for activity at 10 µM: NCI-H522, single dose 10 μM, read-out: percent cell growth promotion
ACHN = test: NCI 60 cell panel SRB screen; assay type: cell-based; details: Homo sapiens; for activity at 10 µM: single dose 10 μM, read-out: percent cell growth promotion
OVCAR-8 = test: NCI 60 cell panel SRB screen; assay type: cell-based; details: Homo sapiens; for activity at 10 µM: OVCAR-8, single dose 10 μM, read-out: percent cell growth promotion
T-47D = test: NCI 60 cell panel SRB screen; assay type: cell-based; details: Homo sapiens, T47D; for activity at 10 µM: read-out: percent cell growth promotion
SNB-19 = test: NCI 60 cell panel SRB screen; assay type: cell-based; details: Homo sapiens; for activity at 10 µM: SNB-19, single dose 10 μM, read-out: percent cell growth promotion
HCC-2998 = test: NCI 60 cell panel SRB screen; assay type: cell-based; details: Homo sapiens; for activity at 10 µM: HCC-2998, single dose 10 μM, read-out: percent cell growth promotion
NCI/ADR-RES = test: NCI 60 cell panel SRB screen; assay type: cell-based; details: Homo sapiens; for activity at 10 µM: single dose 10 μM, read-out: percent cell growth promotion
SF-295 = test: NCI 60 cell panel SRB screen; assay type: cell-based; details: Homo sapiens; for activity at 10 µM: SF-295, single dose 10 μM, read-out: percent cell growth promotion
UO-31 = test: NCI 60 cell panel SRB screen; assay type: cell-based; details: Homo sapiens; for activity at 10 µM: UO-31, single dose 10 μM, read-out: percent cell growth promotion
full NCI 60 cell panel = test: NCI 60 cell panel SRB screen, whole panel; assay type: cell-based, human; details: for activity at 10 µM: mean over the panel, single dose 10 μM, read-out: Mean percent cell growth promotion
PC-3 = test: NCI 60 cell panel SRB screen; assay type: cell-based; details: Homo sapiens; for activity at 10 µM: PC-3, single dose 10 μM, read-out: percent cell growth promotion
K-562 = test: NCI 60 cell panel SRB screen; assay type: cell-based; details: Homo sapiens, K562; for activity at 10 µM: K-562, single dose 10 μM, read-out: percent cell growth promotion
A549/ATCC = test: NCI 60 cell panel SRB screen; assay type: cell-based; details: Homo sapiens; for activity at 10 µM: single dose 10 μM, read-out: percent cell growth promotion
MDA-MB 231/ATCC = test: NCI 60 cell panel SRB screen; assay type: cell-based; details: Homo sapiens; for activity at 10 µM: MDA-MB-231, read-out: percent cell growth promotion
MCF7 = test: NCI 60 cell panel SRB screen; assay type: cell-based; details: Homo sapiens; for activity at 10 µM: MCF7, read-out: percent cell growth promotion
NCI-H23 = test: NCI 60 cell panel SRB screen; assay type: cell-based; details: Homo sapiens; for activity at 10 µM: NCI-H23, single dose 10 μM, read-out: percent cell growth promotion
HOP-62 = test: NCI 60 cell panel SRB screen; assay type: cell-based; details: Homo sapiens; for activity at 10 µM: HOP-62, single dose 10 μM, read-out: percent cell growth promotion
[1] = 5 log dose, 48 h, read-out: LC50 (the source's name)

## O=C(Nc1ccc(Cl)cc1)Nc1ccc(Oc2nncc3ccccc23)cc1 [Compound 7b, 1–(4-Chlorophenyl)-3–(4-(phthalazin-1-yloxy)phenyl)urea]
NCI-H226; NCI-H226, 5 log dose
  GI50: 620 nM
  IC (TGI): 5420 nM
NCI-H226; NCI-H226, 5 log dose, 48 h, read-out: LC50 (the source's name)
  CC50: > 100000 nM
NCI-H226
  activity at 10 µM: -54.5%
RPMI-8226; RPMI-8226, 5 log dose
  GI50: 480 nM
  IC (TGI): 4580 nM
RPMI-8226; RPMI-8226, 5 log dose, 48 h, read-out: LC50 (the source's name)
  CC50: > 100000 nM
RPMI-8226
  activity at 10 µM: -0.08%
NCI-H522; NCI-H522, 5 log dose
  GI50: 190 nM
  IC (TGI): 410 nM
NCI-H522; NCI-H522, 5 log dose, 48 h, read-out: LC50 (the source's name)
  CC50: 910 nM
NCI-H522
  activity at 10 µM: -46.4%
ACHN; 5 log dose
  GI50: 1050 nM
  IC (TGI): 2330 nM
ACHN; [1]
  CC50: 5180 nM
ACHN
  activity at 10 µM: -15.1%
OVCAR-8; OVCAR-8, 5 log dose
  GI50: 1100 nM
  IC (TGI): 13600 nM
OVCAR-8; OVCAR-8, 5 log dose, 48 h, read-out: LC50 (the source's name)
  CC50: > 100000 nM
OVCAR-8
  activity at 10 µM: 19.4%
T-47D
  GI50: 240 nM
  activity at 10 µM: 10.2%
T-47D; read-out: TGI
  IC (TGI): 7680 nM
T-47D; T-47D, 5 log dose, 48 h, read-out: LC50 (the source's name)
  CC50: > 100000 nM
SNB-19; SNB-19, 5 log dose
  GI50: 1740 nM
  IC (TGI): 4790 nM
SNB-19; SNB-19, 5 log dose, 48 h, read-out: LC50 (the source's name)
  CC50: 58300 nM
SNB-19
  activity at 10 µM: -76.5%
HCC-2998; HCC-2998, 5 log dose
  GI50: 1840 nM
  IC (TGI): 3480 nM
HCC-2998; HCC-2998, 5 log dose, 48 h
  LC50 (50% lethal concentration): 6570 nM
HCC-2998
  activity at 10 µM: -42.2%
NCI/ADR-RES; 5 log dose
  GI50: 2630 nM
  IC (TGI): > 100000 nM
NCI/ADR-RES; [1]
  CC50: > 100000 nM
NCI/ADR-RES
  activity at 10 µM: 37.6%
SF-295; SF-295, 5 log dose
  GI50: 2540 nM
  IC (TGI): 6270 nM
SF-295; SF-295, 5 log dose, 48 h, read-out: LC50 (the source's name)
  CC50: 36900 nM
SF-295
  activity at 10 µM: 40.7%
UO-31; UO-31, 5 log dose
  GI50: 1290 nM
  IC (TGI): 2670 nM
UO-31
  activity at 10 µM: -51.6%
Full NCI 60 cell panel; Homo sapiens, 60 cell
  activity at 10 µM: -6.99%
Full NCI 60 cell panel; Homo sapiens, 60 cell, single dose 10 µM, full panel, read-out: mean growth inhibition
  inhibition at 10 µM: 107%
PC-3; PC-3, 5 log dose
  GI50: 1640 nM
  IC (TGI): 6080 nM
PC-3; PC-3, 5 log dose, 48 h, read-out: LC50 (the source's name)
  CC50: 35600 nM
PC-3
  activity at 10 µM: -29%
K-562; K-562, 5 log dose
  GI50: 370 nM
  IC (TGI): > 100000 nM
K-562; K-562, 5 log dose, 48 h, read-out: LC50 (the source's name)
  CC50: > 100000 nM
K-562
  activity at 10 µM: 5.58%
A549/ATCC; 5 log dose
  GI50: 2810 nM
  IC (TGI): 11500 nM
A549/ATCC; 5 log dose, 48 h
  LC50 (concentration killing 50% of cells): > 100000 nM
A549/ATCC
  activity at 10 µM: 40%
MDA-MB 231/ATCC; MDA-MB-231
  GI50: 390 nM
MDA-MB 231/ATCC; MDA-MB-231, read-out: TGI
  IC (TGI): 3680 nM
MDA-MB 231/ATCC
  activity at 10 µM: -25.2%
MDA-MB 231/ATCC; MDA-MB-231, MDA-MDA 231/ATCC, 5 log dose, 48 h, read-out: LC50 (the source's name)
  CC50: 42400 nM
MCF7; MCF7, read-out: TGI
  IC (TGI): 1890 nM
MCF7
  activity at 10 µM: 14.3%
MCF7; MCF7, 5 log dose, read-out: GI50
  GI50: 320 nM
NCI-H23; NCI-H23, 5 log dose
  GI50: 750 nM
  IC (TGI): 2870 nM
NCI-H23; NCI-H23, 5 log dose, 48 h, read-out: LC50 (the source's name)
  CC50: 9610 nM
NCI-H23
  activity at 10 µM: 0.5%
HOP-62; HOP-62, 5 log dose
  GI50: 1090 nM
  IC (TGI): 4320 nM
HOP-62; HOP-62, 5 log dose, 48 h, read-out: LC50 (the source's name)
  CC50: 47700 nM
HOP-62
  activity at 10 µM: 26.7%

## Cc1nnc(Oc2ccc(NC(=O)Nc3ccc(Cl)cc3)cc2)c2ccccc12 [Compound 7e, 1–(4-Chlorophenyl)-3–(4-(4-methylphthalazin-1-yloxy)phenyl)urea]
NCI-H226
  activity at 10 µM: 79.1%
RPMI-8226
  activity at 10 µM: 55.6%
NCI-H522
  activity at 10 µM: 63.8%
ACHN
  activity at 10 µM: 80.7%
OVCAR-8
  activity at 10 µM: 76%
T-47D
  activity at 10 µM: 57.9%
SNB-19
  activity at 10 µM: 84.1%
HCC-2998
  activity at 10 µM: 110%
NCI/ADR-RES
  activity at 10 µM: 72.8%
SF-295
  activity at 10 µM: 91.8%
UO-31
  activity at 10 µM: 51.4%
Full NCI 60 cell panel; Homo sapiens, 60 cell
  activity at 10 µM: 72.8%
Full NCI 60 cell panel; single dose 10 µM
  cell growth inhibition, in words: moderate cell growth inhibition against leukaemia and breast cell lines
PC-3
  activity at 10 µM: 39%
K-562
  activity at 10 µM: 61.1%
A549/ATCC
  activity at 10 µM: 61.5%
MDA-MB 231/ATCC
  activity at 10 µM: 52.9%
MCF7
  activity at 10 µM: 72.7%
NCI-H23
  activity at 10 µM: 84.9%
HOP-62
  activity at 10 µM: 71.1%

## CCOC(=O)N1CCN(c2nncc3ccccc23)CC1 [Compound 8a, Ethyl 4-(phthalazin-1-yl)piperazine-1-carboxylate]
NCI-H226
  activity at 10 µM: 100%
RPMI-8226
  activity at 10 µM: 101%
NCI-H522
  activity at 10 µM: 99.8%
ACHN
  activity at 10 µM: 115%
OVCAR-8
  activity at 10 µM: 97.7%
T-47D
  activity at 10 µM: 100%
SNB-19
  activity at 10 µM: 103%
HCC-2998
  activity at 10 µM: 117%
NCI/ADR-RES
  activity at 10 µM: 102%
SF-295
  activity at 10 µM: 102%
UO-31
  activity at 10 µM: 91.3%
Full NCI 60 cell panel; Homo sapiens, 60 cell
  activity at 10 µM: 105%
Full NCI 60 cell panel; single dose 10 µM
  cell growth inhibition, in words: nor the piperazines (8a, 8d, 8f, 8g, 8h and 8i) showed any significant cell line growth inhibition
PC-3
  activity at 10 µM: 92.6%
K-562
  activity at 10 µM: 110%
A549/ATCC
  activity at 10 µM: 99.6%
MDA-MB 231/ATCC
  activity at 10 µM: 108%
MCF7
  activity at 10 µM: 103%
NCI-H23
  activity at 10 µM: 105%
HOP-62
  activity at 10 µM: 107%
